Data reported in the Kinase Knowledgebase extract (Sharma et al. 2016).

Target: EGFR (human) (UniProt P00533)
Sequence (P00533 whole entry, looked up): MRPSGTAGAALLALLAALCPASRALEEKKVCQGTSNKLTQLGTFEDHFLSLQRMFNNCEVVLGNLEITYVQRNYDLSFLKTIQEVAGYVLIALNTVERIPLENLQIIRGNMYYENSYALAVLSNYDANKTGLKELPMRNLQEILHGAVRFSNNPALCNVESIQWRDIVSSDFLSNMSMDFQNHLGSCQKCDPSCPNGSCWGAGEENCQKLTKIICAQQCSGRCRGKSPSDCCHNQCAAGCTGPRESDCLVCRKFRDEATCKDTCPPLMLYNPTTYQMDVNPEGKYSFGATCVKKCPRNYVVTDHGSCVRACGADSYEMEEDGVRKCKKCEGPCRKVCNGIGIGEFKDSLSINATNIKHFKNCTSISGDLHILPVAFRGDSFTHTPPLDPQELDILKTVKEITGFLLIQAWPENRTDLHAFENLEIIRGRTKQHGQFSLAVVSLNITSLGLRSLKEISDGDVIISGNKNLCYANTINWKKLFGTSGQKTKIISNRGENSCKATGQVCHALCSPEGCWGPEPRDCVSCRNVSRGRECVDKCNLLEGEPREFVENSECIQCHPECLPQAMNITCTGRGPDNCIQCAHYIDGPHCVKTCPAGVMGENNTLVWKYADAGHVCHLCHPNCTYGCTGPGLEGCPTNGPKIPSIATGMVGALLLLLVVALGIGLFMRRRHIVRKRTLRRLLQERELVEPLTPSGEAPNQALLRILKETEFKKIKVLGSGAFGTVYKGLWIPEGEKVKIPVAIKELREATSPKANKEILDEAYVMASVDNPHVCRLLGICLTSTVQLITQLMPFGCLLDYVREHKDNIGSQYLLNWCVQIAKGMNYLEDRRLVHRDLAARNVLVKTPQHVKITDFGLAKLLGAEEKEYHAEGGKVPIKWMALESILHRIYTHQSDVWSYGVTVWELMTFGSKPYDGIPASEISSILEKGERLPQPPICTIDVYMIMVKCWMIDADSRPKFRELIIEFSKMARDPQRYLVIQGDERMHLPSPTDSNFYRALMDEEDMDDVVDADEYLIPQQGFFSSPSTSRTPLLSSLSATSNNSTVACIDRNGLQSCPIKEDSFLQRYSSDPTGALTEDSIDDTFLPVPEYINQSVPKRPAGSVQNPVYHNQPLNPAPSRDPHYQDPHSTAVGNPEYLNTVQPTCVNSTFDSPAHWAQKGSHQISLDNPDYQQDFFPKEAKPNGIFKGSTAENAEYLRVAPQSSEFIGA

| Structure (SMILES) | IC50 [nM] |
| --- | --- |
| COc1cc2ncnc(Nc3ccc(F)c(Cl)c3)c2cc1OCCCCC(=O)NO | ≤ 100 |
| C#Cc1cccc(Nc2ncnc3cc(OC)c(OCCCCCC(=O)NO)cc23)c1 | ≤ 100 |
| O=C(CCCCCOc1ccc2ncnc(Nc3ccc(F)c(Cl)c3)c2c1)NO | ≤ 100 |
| C#Cc1cc(Nc2ncnc3cc(OC)c(OCCCCCCC(=O)NO)cc23)ccc1F | ≤ 100 |
| COc1cc2ncnc(Nc3ccc(F)c(Cl)c3)c2cc1OCCC(=O)NO | ≤ 100 |
| COc1cc2ncnc(Nc3ccc(F)c(Cl)c3)c2cc1SCCCCC(=O)NO | ≤ 100 |
| COc1cc2ncnc(Nc3ccc(F)c(Cl)c3)c2cc1OCCCCCCC(=O)NO | ≤ 100 |
| C#Cc1cccc(Nc2ncnc3ccc(OCCCC(=O)NO)cc23)c1 | 100 to 1000 |
| C#Cc1cccc(Nc2ncnc3cc(OCCOC)c(OCCCCCCC(=O)NO)cc23)c1 | ≤ 100 |
| COCCOc1cc2c(Nc3ccc(F)c(Cl)c3)ncnc2cc1OCCCCCCC(=O)NO | ≤ 100 |
| C#Cc1cccc(Nc2ncnc3cc(OCCCCCCC(=O)NO)c(OCCOC)cc23)c1 | ≤ 100 |
| COCCOc1cc2ncnc(Nc3ccc(F)c(Cl)c3)c2cc1NC(=O)CCCCCCC(=O)NO | ≤ 100 |
| COCCOc1cc2ncnc(Nc3ccc(F)c(Cl)c3)c2cc1NC(=O)CCCCC(=O)NO | ≤ 100 |
| COc1cc2ncnc(Nc3ccc(OCc4cccc(F)c4)c(Cl)c3)c2cc1OCCCCCCC(=O)NO | ≤ 100 |
| COc1cc2ncnc(Nc3ccc(F)c(Cl)c3)c2cc1OCCOc1ccc(CC(=O)NO)cc1 | ≤ 100 |
| C#Cc1cc(Nc2ncnc3cc(OC)c(OCCCCCCC(=O)NO)cc23)ccc1O | ≤ 100 |
| COc1cc2ncnc(Nc3ccc(F)c(Cl)c3)c2cc1NC(=O)Nc1ccc(C(=O)NO)cc1 | ≤ 100 |
| COc1cc2ncnc(Nc3ccc(F)c(Cl)c3)c2cc1OCCCC(=O)NO | ≤ 100 |
| C#Cc1cccc(Nc2ncnc3ccc(OCC(=O)NO)cc23)c1 | ≤ 100 |
| COc1cc2ncnc(N[C@H](C)c3ccc(Cl)cc3)c2cc1OCCCCCCC(=O)NO | 100 to 1000 |
| C#Cc1cccc(Nc2ncnc3cc(O)c(OCCCCCCC(=O)NO)cc23)c1 | ≤ 100 |

| Structure (SMILES) | IC50 [nM] |
| --- | --- |
| C#Cc1cccc(Nc2ncnc3cc(OC)c(NC(=O)CCCC(=O)NO)cc23)c1 | ≤ 100 |
| COc1cc2ncnc(Nc3ccc(F)c(Cl)c3)c2cc1OCCCCCCC(=O)N(C)O | ≤ 100 |
| C#Cc1cccc(Nc2ncnc3cc(OC)c(NC(=O)CCCCCCC(=O)NO)cc23)c1 | ≤ 100 |
| C[C@@H](Nc1ncnc2ccc(OCCCCCC(=O)NO)cc12)c1ccccc1 | 100 to 1000 |
| C#Cc1cccc(Nc2ncnc3ccc(OCCCCCC(=O)NO)cc23)c1 | 100 to 1000 |
| COc1cc2ncnc(N[C@H](C)c3ccc(F)cc3)c2cc1OCCCCCCC(=O)NO | 100 to 1000 |
| COc1cc2ncnc(NCc3ccc(F)c(Cl)c3)c2cc1OCCCCCCC(=O)NO | ≤ 100 |
| C[C@@H](Nc1ncnc2ccc(OCCCCCCC(=O)NO)cc12)c1ccccc1 | 100 to 1000 |
| COc1cc2ncnc(NCc3cccc(Br)c3)c2cc1OCCCCCCC(=O)NO | 100 to 1000 |
| O=C(CCCCCCOc1ccc2ncnc(Nc3ccc(F)c(Cl)c3)c2c1)NO | ≤ 100 |
| COc1cc2ncnc(Nc3ccc(F)c(Cl)c3)c2cc1NC(=O)CCCC(=O)NO | ≤ 100 |
| C#Cc1cc(Nc2ncnc3cc(OCCOC)c(OCCCCCCC(=O)NO)cc23)ccc1F | ≤ 100 |
| C#Cc1cccc(Nc2ncnc3cc(OC)c(OCCC(=O)NO)cc23)c1 | ≤ 100 |
| COc1cc2ncnc(Nc3ccc(F)c(Cl)c3)c2cc1OCCOc1ccc(C(=O)NO)cc1 | ≤ 100 |
| C#Cc1cccc(Nc2ncnc3ccc(OCCCCC(=O)NO)cc23)c1 | ≤ 100 |
| COc1cc2ncnc(Nc3ccc(F)c(Cl)c3)c2cc1OCCOc1ccc(C=CC(=O)NO)cc1 | ≤ 100 |
| COCCOc1cc2ncnc(Nc3ccc(F)c(Cl)c3)c2cc1NC(=O)CCCC(=O)NO | ≤ 100 |
| O=C(CCCCCNCc1ccc(-c2ccc3ncnc(Nc4ccc(OCc5cccc(F)c5)c(Cl)c4)c3c2)o1)NO | ≤ 100 |
| O=C(COc1ccc2ncnc(Nc3ccc(F)c(Cl)c3)c2c1)NO | ≤ 100 |
| COc1cc2ncnc(Nc3ccc(F)c(Cl)c3)c2cc1NC(=O)CCCCCCC(=O)NO | ≤ 100 |
| COc1cc2ncnc(N[C@H](C)c3ccccc3)c2cc1OCCCCCC(=O)NO | ≤ 100 |

| Structure (SMILES) | IC50 [nM] |
| --- | --- |
| C#Cc1cccc(Nc2ncnc3cc(OC)c(OCC(=O)NO)cc23)c1 | ≤ 100 |
| COc1cc2ncnc(Nc3ccc(F)c(Cl)c3)c2cc1SCCCCCCC(=O)NO | ≤ 100 |
| O=C(CCCCCCOc1ccc2ncnc(Nc3ccc(OCc4cccc(F)c4)c(Cl)c3)c2c1)NO | ≤ 100 |
| O=C(CCCCOc1ccc2ncnc(Nc3ccc(F)c(Cl)c3)c2c1)NO | ≤ 100 |
| Nc1cc(Br)ccc1NC(=O)COc1ccc2ncnc(Nc3ccc(F)c(Cl)c3)c2c1 | 100 to 1000 |
| COc1cc2ncnc(Nc3ccc(F)c(Cl)c3)c2cc1OCC(=O)NO | ≤ 100 |
| COc1cc2ncnc(NCc3ccccc3)c2cc1OCCCCCCC(=O)NO | ≤ 100 |
| COCCOc1cc2ncnc(Nc3ccc(F)c(Cl)c3)c2cc1OCCCCCCC(=O)NO | ≤ 100 |
| C#Cc1cccc(Nc2ncnc3cc(OC)c(NC(=O)CCCCC(=O)NO)cc23)c1 | ≤ 100 |
| O=C(CCOc1ccc2ncnc(Nc3ccc(F)c(Cl)c3)c2c1)NO | ≤ 100 |
| COCCOc1cc2ncnc(Nc3ccc(OCc4cccc(F)c4)c(Cl)c3)c2cc1OCCCCCCC(=O)NO | ≤ 100 |
| COc1cc2ncnc(Nc3ccc(F)c(Cl)c3)c2cc1CCCCCC(=O)NO | ≤ 100 |
| COc1cc2ncnc(Nc3ccc(F)c(Cl)c3)c2cc1OCCCCCCN(O)C(N)=O | ≤ 100 |
| C#Cc1cccc(Nc2ncnc3cc(OCCCCCCC(=O)NO)c(OC)cc23)c1 | ≤ 100 |
| O=C(CCCCCCCNCc1ccc(-c2ccc3ncnc(Nc4ccc(OCc5cccc(F)c5)c(Cl)c4)c3c2)o1)NO | ≤ 100 |
| COc1cc2ncnc(NCc3ccc(F)c(F)c3)c2cc1OCCCCCCC(=O)NO | 100 to 1000 |
| COc1cc2ncnc(Nc3ccc(F)c(Cl)c3)c2cc1OCCCCCC(=O)NO | ≤ 100 |
| COc1cc2ncnc(NCCc3ccccc3)c2cc1OCCCCCCC(=O)NO | 100 to 1000 |
| COc1ccc([C@@H](C)Nc2ncnc3cc(OC)c(OCCCCCCC(=O)NO)cc23)cc1 | ≥ 10000 |
| C#Cc1cccc(Nc2ncnc3ccc(OCCCCCCC(=O)NO)cc23)c1 | 100 to 1000 |
| C#Cc1cccc(Nc2ncnc3cc(OC)c(OCCCC(=O)NO)cc23)c1 | ≤ 100 |
